Values after ≈ are worked out from the molar mass of the structure shown. Numbered stars: 1 amine (or outer) side, 2 acyl side, 3 side chain; on linkers, the order of the positions; unused ones are H or OH. Peptide text beside a SMILES is read from it. * marks the point of attachment. C20 diacid = O=C(O)CCCCCCCCCCCCCCCCCCC(=O)*; C18 diacid = O=C(O)CCCCCCCCCCCCCCCCC(=O)*; γGlu = O=C(O)[C@H](CCC(=O)[*:2])N[*:1]; C14 diacid = O=C(O)CCCCCCCCCCCCC(=O)*
Experiments:
[1] = Assay (IV) determination of solubility; assay type: physicochemical
Method: Assay (IV)—Determination of Solubility
The mimylin peptide was dissolved in water at ˜500 nmol/ml and mixed 1:1 with a series of buffers (100 mM glycylglycine pH 3.0, 100 mM glycylglycine pH 4.0, 100 mM glycylglycine pH 5.0, 100 mM bistrispropane pH 6.0, 100 mM bistrispropane pH 6.5, 100 mM bistrispropane pH 7.0, 100 mM bistrispropane pH 7.5, 100 mM bistrispropane pH 8.0).

[2] = molecular target: T1, rat calcitonin receptor (Rattus norvegicus, UniProt P32214); experiment: Assay (VIII) binding to the rat calcitonin receptor; conditions: membranes; read-out: rCT-R binding IC50
T1 construct: expressed in transfected cells; host or cells: BHK tk'ts 13 (transient, FuGENE 6)
T1 sequence (P32214 25-479 isoform P32214-2 limits assumed): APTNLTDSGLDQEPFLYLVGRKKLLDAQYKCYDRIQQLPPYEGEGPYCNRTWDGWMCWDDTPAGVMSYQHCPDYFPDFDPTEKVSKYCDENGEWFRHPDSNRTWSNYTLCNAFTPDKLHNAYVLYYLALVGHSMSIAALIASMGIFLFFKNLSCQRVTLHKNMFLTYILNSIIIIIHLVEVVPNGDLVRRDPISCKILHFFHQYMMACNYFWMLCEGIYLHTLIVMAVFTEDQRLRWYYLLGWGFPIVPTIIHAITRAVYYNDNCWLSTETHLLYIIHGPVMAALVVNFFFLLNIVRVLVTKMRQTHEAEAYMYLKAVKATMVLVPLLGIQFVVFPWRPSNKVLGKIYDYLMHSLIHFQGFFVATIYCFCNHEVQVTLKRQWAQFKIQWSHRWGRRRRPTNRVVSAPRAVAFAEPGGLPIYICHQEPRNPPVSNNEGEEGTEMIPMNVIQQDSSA
Method: The morning after, the plates were washed three times in HBSS (4° C.), and lyzed in Lysis buffer (0.1 M NaOH), 1% SDS. Scintillation cocktail (MicroScint40®) was added and the plates were shaken at 500 rpm for a short period. The plate was incubated at room temperature in the dark for 1 hour and Read on a TopCounter™ (Packard). The IC50 was calculated using (one site binding competition analysis) GraphPad Prism5 as a measure of receptor affinity. Assay (VIII)—Determination of Binding to the Rat Calcitonin Receptor
The assay was performed as described above (Assay (VII)—Determination of binding to the human calcitonin receptor) with the exception that we used membranes prepared from BHK tk'ts 13 cells that were transiently transfected with the rat calcitonin receptor. The BHK tk'ts 13 cells were transiently transfected with rat calcitonin receptor using FuGENE® 6 (Roche), according to the manufacturer's recommendations. Cells were grown in DMEM with 10% FBS and 1% Pen/Strep.

With `CC(C)C[C@H](NC(=O)[C@H](C)NC(=O)[C@H](C)NC(=O)[C@@H](NC(=O)[C@H](CO)NC(=O)[C@H](CC(C)C)NC(=O)[C@H](CCC(=O)O)NC(=O)[C@H](CO)NC(=O)[C@H](C)NC(=O)CC[C@H](NC(=O)CCCCCCCCCCCCC(=O)O)C(=O)O)[C@@H](C)O)C(=O)NCC(=O)N[C@@H](CCCNC(=N)N)C(=O)N[C@@H](CC(C)C)C(=O)N[C@@H](CO)C(=O)N[C@@H](C)C(=O)N[C@@H](CCC(=O)O)C(=O)N[C@@H](CC(C)C)C(=O)N[C@@H](Cc1cnc[nH]1)C(=O)N[C@@H](CCC(=O)O)C(=O)N[C@@H](CC(C)C)C(=O)N[C@@H](C)C(=O)N[C@H](C(=O)N[C@@H](CC(C)C)C(=O)N1CCC[C@H]1C(=O)N[C@@H](CCCNC(=N)N)C(=O)N[C@H](C(=O)N[C@@H](CCC(=O)O)C(=O)N[C@H](C(=O)NCC(=O)N[C@@H](CO)C(=O)NCC(=O)N[C@@H](CO)C(=O)N1CCC[C@H]1C(N)=O)[C@@H](C)O)[C@@H](C)O)[C@@H](C)O` [compound 50, [N-terminal(C14 diacid-gGlu), des1, 30S, 31G]mimylin] ({C14 diacid-γGlu}-ASELSTAALGRLSAELHELATLPRTETGSGSP-NH2) the Solubility ([1]; pH 3.0) was “≧200 μM”, the Solubility ([1]; pH 4.0) was “≧200 μM” and the Solubility ([1]; pH 5.0) was “≧200 μM”. The Solubility ([1]; pH 6.0) was “≧200 μM”, the Solubility ([1]; pH 6.5) was “≧200 μM” and the Solubility ([1]; pH 7.0) was “≧200 μM”. The Solubility ([1]; pH 7.5) was “≧200 μM”, the Solubility ([1]; pH 8.0) was “≧200 μM” and the IC50 [2] was 0.017 nM.

In the case of `CC(C)C[C@H](NC(=O)[C@H](CCCNC(=N)N)NC(=O)CNC(=O)[C@H](CC(C)C)NC(=O)[C@@H](NC(=O)[C@H](C)NC(=O)[C@@H](NC(=O)[C@H](CO)NC(=O)[C@H](CC(C)C)NC(=O)[C@H](CCC(N)=O)NC(=O)[C@H](CO)NC(=O)[C@H](C)NC(=O)CC[C@H](NC(=O)CCCCCCCCCCCCCCCCCCC(=O)O)C(=O)O)[C@@H](C)O)C(C)C)C(=O)N[C@@H](CO)C(=O)N[C@@H](CCC(N)=O)C(=O)N[C@@H](CCCNC(=N)N)C(=O)N[C@@H](CC(C)C)C(=O)N[C@@H](Cc1cnc[nH]1)C(=O)N[C@@H](CCCNC(=N)N)C(=O)N[C@@H](CC(C)C)C(=O)N[C@@H](CCC(N)=O)C(=O)N[C@H](C(=O)N[C@@H](Cc1ccc(O)cc1)C(=O)N1CCC[C@H]1C(=O)N[C@@H](CCCNC(=N)N)C(=O)N[C@H](C(=O)N[C@@H](CCC(N)=O)C(=O)N[C@H](C(=O)NCC(=O)N[C@@H](CO)C(=O)N[C@@H](CCC(N)=O)C(=O)N[C@H](C(=O)N[C@@H](Cc1ccc(O)cc1)C(N)=O)[C@@H](C)O)[C@@H](C)O)[C@@H](C)O)[C@@H](C)O` [compound 132, [N-terminal(C20 diacid-gGlu), des1, 4Q, 9V, 15Q, 16R, 19R, 21Q, 23Y, 27Q, 30S, 31Q, 32T, 33Y]mimylin] ({C20 diacid-γGlu}-ASQLSTAVLGRLSQRLHRLQTYPRTQTGSQTY-NH2), the IC50 [2] is reported as 0.069 nM.

With `CC(C)C[C@H](NC(=O)CC[C@H](NC(=O)CCCCCCCCCCCCCCCCCCC(=O)O)C(=O)O)C(=O)N[C@@H](CO)C(=O)NCC(=O)N[C@@H](CC(C)C)C(=O)N[C@@H](CO)C(=O)N[C@H](C(=O)N[C@@H](C)C(=O)N[C@H](C(=O)N[C@@H](CC(C)C)C(=O)NCC(=O)N[C@@H](CCCNC(=N)N)C(=O)N[C@@H](CC(C)C)C(=O)N[C@@H](CO)C(=O)N[C@@H](C)C(=O)N[C@@H](CCC(=O)O)C(=O)N[C@@H](CC(C)C)C(=O)N[C@@H](Cc1cnc[nH]1)C(=O)N[C@@H](CCC(=O)O)C(=O)N[C@@H](CC(C)C)C(=O)N[C@@H](CO)C(=O)N[C@H](C(=O)N[C@@H](Cc1ccc(O)cc1)C(=O)N1CCC[C@H]1C(=O)N[C@@H](CCCNC(=N)N)C(=O)N[C@H](C(=O)N[C@@H](CCC(=O)O)C(=O)N[C@H](C(=O)NCC(=O)N[C@@H](CO)C(=O)NCC(=O)N[C@H](C(=O)N[C@@H](Cc1ccc(O)cc1)C(N)=O)[C@@H](C)O)[C@@H](C)O)[C@@H](C)O)[C@@H](C)O)C(C)C)[C@@H](C)O` [compound 123, [N-terminal(C20 diacid-gGlu), des1, 2L, 4G, 9V, 21S, 23Y, 30S, 31G, 32T, 33Y]mimylin] ({C20 diacid-γGlu}-LSGLSTAVLGRLSAELHELSTYPRTETGSGTY-NH2) the Solubility ([1]; pH 3.0) was “≧200 μM”, the Solubility ([1]; pH 4.0) was “≧200 μM” and the solubility at 18 h ([1]; pH 5.0) was 2 µM (≈ 7.64 µg/mL). The Solubility ([1]; pH 6.0) was “≧200 μM”, the Solubility ([1]; pH 6.5) was “≧200 μM” and the Solubility ([1]; pH 7.0) was “≧200 μM”. The Solubility ([1]; pH 7.5) was “≧200 μM” and the Solubility ([1]; pH 8.0) was “≧200 μM”.

In the case of `CC(C)C[C@H](NC(=O)[C@H](C)NC(=O)[C@H](C)NC(=O)[C@@H](NC(=O)[C@H](CO)NC(=O)[C@H](CC(C)C)NC(=O)[C@H](CCC(=O)O)NC(=O)[C@H](CO)NC(=O)[C@H](C)NC(=O)CC[C@H](NC(=O)CCCCCCCCCCCCCCCCCCC(=O)O)C(=O)O)[C@@H](C)O)C(=O)NCC(=O)N[C@@H](CCCNC(=N)N)C(=O)N[C@@H](CC(C)C)C(=O)N[C@@H](CO)C(=O)N[C@@H](C)C(=O)N[C@@H](CCC(=O)O)C(=O)N[C@@H](CC(C)C)C(=O)N[C@@H](Cc1cnc[nH]1)C(=O)N[C@@H](CCC(=O)O)C(=O)N[C@@H](CC(C)C)C(=O)N[C@@H](C)C(=O)N[C@H](C(=O)N[C@@H](CC(C)C)C(=O)N1CCC[C@H]1C(=O)N[C@@H](Cc1cnc[nH]1)C(=O)N[C@H](C(=O)N[C@@H](CCC(=O)O)C(=O)N[C@H](C(=O)NCC(=O)N[C@@H](CO)C(=O)NCC(=O)N[C@@H](CO)C(=O)N1CCC[C@H]1C(N)=O)[C@@H](C)O)[C@@H](C)O)[C@@H](C)O` [compound 73, [N-terminal(C20 diacid-gGlu), des1, 25H, 30S, 31G]mimylin] ({C20 diacid-γGlu}-ASELSTAALGRLSAELHELATLPHTETGSGSP-NH2), the Solubility ([1]; pH 3.0) is reported as “≧200 μM”, the Solubility ([1]; pH 4.0) is reported as “≧200 μM” and the Solubility ([1]; pH 5.0) is reported as “≧200 μM”. For the same molecule, the Solubility ([1]; pH 6.0) was “≧200 μM”, the Solubility ([1]; pH 6.5) was “≧200 μM” and the Solubility ([1]; pH 7.0) was “≧200 μM”. The Solubility ([1]; pH 7.5) was “≧200 μM” and the Solubility ([1]; pH 8.0) was “≧200 μM”.

In the case of `CC(C)C[C@H](NC(=O)[C@H](C)NC(=O)[C@H](C)NC(=O)[C@@H](NC(=O)[C@H](Cc1cnc[nH]1)NC(=O)[C@H](CC(C)C)NC(=O)[C@H](CCC(=O)O)NC(=O)[C@H](CO)NC(=O)[C@H](C)NC(=O)[C@H](CCC(=O)O)NC(=O)CCCCCCCCCCCCCCCCC(=O)O)[C@@H](C)O)C(=O)NCC(=O)N[C@@H](CCCNC(=N)N)C(=O)N[C@@H](CC(C)C)C(=O)N[C@@H](CO)C(=O)N[C@@H](C)C(=O)N[C@@H](CCC(=O)O)C(=O)N[C@@H](CC(C)C)C(=O)N[C@@H](Cc1cnc[nH]1)C(=O)N[C@@H](CCC(=O)O)C(=O)N[C@@H](CC(C)C)C(=O)N[C@@H](C)C(=O)N[C@H](C(=O)N[C@@H](CC(C)C)C(=O)N1CCC[C@H]1C(=O)N[C@@H](CCCNC(=N)N)C(=O)N[C@H](C(=O)N[C@@H](CCC(=O)O)C(=O)N[C@H](C(=O)NCC(=O)N1CCC[C@H]1C(=O)N[C@@H](CCC(=O)O)C(=O)N[C@@H](CO)C(=O)N1CCC[C@H]1C(N)=O)[C@@H](C)O)[C@@H](C)O)[C@@H](C)O` [compound 16, [N-terminal(C18 diacid), 6H]mimylin] ({C18 diacid}-EASELHTAALGRLSAELHELATLPRTETGPESP-NH2), the Solubility ([1]; pH 3.0) is reported as “≧200 μM”, the Solubility ([1]; pH 4.0) is reported as “≧200 μM” and the Solubility ([1]; pH 5.0) is reported as “≧200 μM”. For the same molecule, the Solubility ([1]; pH 6.0) was “≧200 μM”, the Solubility ([1]; pH 6.5) was “≧200 μM” and the Solubility ([1]; pH 7.0) was “≧200 μM”. The Solubility ([1]; pH 7.5) was “≧200 μM” and the Solubility ([1]; pH 8.0) was “≧200 μM”.

In the case of `CC(C)C[C@H](NC(=O)[C@H](C)NC(=O)[C@H](CC(C)C)NC(=O)[C@@H](NC(=O)[C@H](CO)NC(=O)[C@H](CC(C)C)NC(=O)[C@H](CCC(=O)O)NC(=O)[C@H](CO)NC(=O)[C@H](C)NC(=O)[C@H](CCC(=O)O)NC(=O)CCCCCCCCCCCCCCCCC(=O)O)[C@@H](C)O)C(=O)NCC(=O)N[C@@H](CCCNC(=N)N)C(=O)N[C@@H](CC(C)C)C(=O)N[C@@H](CO)C(=O)N[C@@H](C)C(=O)N[C@@H](CCC(=O)O)C(=O)N[C@@H](CC(C)C)C(=O)N[C@@H](Cc1cnc[nH]1)C(=O)N[C@@H](CCC(=O)O)C(=O)N[C@@H](CC(C)C)C(=O)N[C@@H](C)C(=O)N[C@H](C(=O)N[C@@H](CC(C)C)C(=O)N1CCC[C@H]1C(=O)N[C@@H](CCCNC(=N)N)C(=O)N[C@H](C(=O)N[C@@H](CCC(=O)O)C(=O)N[C@H](C(=O)NCC(=O)N1CCC[C@H]1C(=O)N[C@@H](CCC(=O)O)C(=O)N[C@@H](CO)C(=O)N1CCC[C@H]1C(N)=O)[C@@H](C)O)[C@@H](C)O)[C@@H](C)O` [compound 15, [N-terminal(C18 diacid), 8L]mimylin] ({C18 diacid}-EASELSTLALGRLSAELHELATLPRTETGPESP-NH2), the Solubility ([1]; pH 3.0) is reported as “≧200 μM”, the Solubility ([1]; pH 4.0) is reported as “≧200 μM” and the Solubility ([1]; pH 5.0) is reported as “≧200 μM”. The Solubility ([1]; pH 6.0) was “≧200 μM”, the Solubility ([1]; pH 6.5) was “≧200 μM” and the Solubility ([1]; pH 7.0) was “≧200 μM”. The Solubility ([1]; pH 7.5) was “≧200 μM” and the Solubility ([1]; pH 8.0) was “≧200 μM”.

Source: patent US9593149B2, “Amylin and calcitonin receptor agonist” (Novo Nordisk A/S, priority 2014, dated 2017)
